Common to all, as to assay type: cell-based, human
Assay [1] deals with membrane P-selectin on platelets. The assay is described as follows: 2-Step membrane P-selectin assay in whole blood (Example 6). The conditions noted are these: 10 μM ADP (with 1.0 uM Epinepherine where named) for two minutes, formalin treated. The procedure: Whole blood was obtained from a healthy volunteer and collected into a sample collection tube containing D-Phe-Pro-Arg-chloromethylketone (PPACK, dihydrochloride). An aliquot of whole blood was stimulated with 10 μM adenosine diphosphate (ADP) and 1.0 uM Epinepherine for two minutes and then treated for two minutes with neutral buffered formalin (1% final concentration). An additional aliquot of whole blood was stimulated with 10 μM ADP for two minutes and then treated for two minutes with neutral buffered formalin. An additional aliquot of whole blood was treated for two minutes with 1% neutral buffered formalin for two minutes without ADP stimulation.
50 μL of 0.5% (w/v) paramagnetic microparticles (3.7 micron (μm)), which were coated with anti-glycoprotein GP1b murine monoclonal antibodies (Mab), were added to 100 μL of each of the above sample preparations. The mixtures were incubated at room temperature for 10 minutes. The microparticles were separated magnetically and the supernatant was removed. The microparticles were washed by re-suspension in 200 μL of PBS supplemented with 1% BSA. The microparticles were again separated magnetically and the supernatant removed. […] The microparticles were separated magnetically and the supernatants transferred to a 96 well plate and examined for fluorescence intensity.

Assay [2] has as its system membrane-bound P-selectin on platelets. The assay is described as follows: 1-Step membrane P-selectin assay in whole blood (Example 5). The conditions noted are these: 10 μM ADP for two minutes, formalin fixed. The protocol:
Whole blood was obtained from a healthy volunteer and collected into a blood collection tube containing D-phe-pro-arg-chloromethylketone (PPACK, Dihydrochloride). An aliquot of whole blood was stimulated with 10 μM adenosine diphosphate (ADP) for two minutes and then fixed for two minutes with neutral buffered formalin (1% final concentration). Another aliquot was not treated with ADP, but only fixed with 1% neutral buffered formalin for two minutes
To 100 μL of each of the above three sample preparations the following reagents were added: 50 μL of FITC-labeled anti-P-selectin (anti-CD62P) rabbit polyclonal antibody (at 20 μg/mL) and 50 μL of 0.5% (w/v) paramagnetic microparticles (3.7 micron (μm)) coated with anti-glycoprotein GPIb (CD42b) murine monoclonal antibody (Mab). The mixtures were incubated at room temperature for either 10 or 15 minutes. The microparticles were separated magnetically and the supernatant was removed. The microparticles were washed by re-suspension in 200 μL of PBS supplemented with 1% bovine serum albumin (BSA) followed by magnetic separation of the microparticles and removal of the supernatant. This sequence was repeated and the microparticles were re-suspended in 0.1% SDS at pH 11. The microparticles were separated magnetically and the supernatants were transferred to a 96 well plate and examined for fluorescence intensity.

Assay [3] has as its system membrane GPIIb/IIIa on platelets. The assay is described as follows: GPIIb/IIIa assay with fibrinogen-coated microparticles (Example 7). The conditions noted are these: two minutes. The protocol:
3.7 micron (μm) carboxyl-modified paramagnetic microparticles were coated with Human Fibrinogen which interacts and binds with the complexed form of the platelet membrane surface component glycoproteins GPIIb/GPIIIa (CD41/CD61). The coated particles were re-suspended in phosphate buffered saline (PBS) buffer at 0.5% w/v.
(§1) Whole blood was obtained from a healthy volunteer and collected into a 3.0 mL blood collection tube containing 0.3 μg D-phe-pro-arg-chloromethylketone (PPACK, Dihydrochloride) and 2.1 mL Hanks' Balanced Salt supplemented with 10 mM HEPES, pH 7.4. An aliquot of this whole blood preparation was stimulated with 10 μM adenosine 5′-diphosphate (ADP) for two minutes prior to being tested in the assay. Another aliquot was stimulated with 2 μM adenosine 5′-diphosphate (ADP) for two minutes prior to being tested in the assay, and a final aliquot was not treated with ADP.
To a set of 5 μL, 10 μL, and 20 μL of each of the above three sample preparations 20 μL of FITC-labeled anti-IIb/IIIa (anti-CD41a) mouse monoclonal antibody (at 20 μg/mL) was added. The mixture was incubated for 10 minutes at room temperate at which point 50 μL of 0.5% (w/v) paramagnetic microparticles (3.7 micron (μm)) coated with Fibrinogen was added. The mixtures were incubated at room temperature for an additional 10 minutes. The microparticles were separated magnetically and the supernatant was removed. The microparticles were washed by re-suspension in 200 μL of PBS supplemented with 1% bovine serum albumin (BSA), followed by magnetic separation of the microparticles and removal of the supernatant. This sequence was repeated three times and the microparticles were re-suspended in 0.1% SDS at pH 11. The microparticles were separated magnetically and the supernatants were transferred to a 96 well plate and examined for fluorescence intensity.

Assay [4] has as its system membrane-bound P-selectin on platelets. The assay is described as follows: Membrane P-Selectin assay (Example 8). The conditions noted are these: two minutes. The procedure:
as §1
To a set of 10 μL and 20 μL of each of the above three sample preparations 20 μL of FITC-labeled anti P-Selectin (anti-CD62P) rabbit polyclonal antibody (at 20 μg/mL) was added. The mixture was incubated for 10 minutes at room temperate at which point 50 μL of 0.5% (w/v) paramagnetic microparticles (3.7 micron (μm)) coated with anti-glycoprotein GP1b (CD42b) murine monoclonal antibody (Mab) was added. The mixtures were incubated at room temperature for an additional 10 minutes. The microparticles were separated magnetically and the supernatant was removed. The microparticles were washed by re-suspension in 200 μL of PBS supplemented with 1% bovine serum albumin (BSA) followed by magnetic separation of the microparticles and removal of the supernatant. This sequence was repeated three times and the microparticles were re-suspended in 0.1% SDS at pH 11. The microparticles were separated magnetically, and the supernatants were transferred to a 96 well plate and examined for fluorescence intensity.

Results on 1 molecule are retold here after patent US20020076833A1, “Analysis of biological samples utilizing a coated solid phase” (priority 2000, published 2002).

Take `Nc1ncnc2c1ncn2[C@@H]1O[C@H](COP(=O)(O)OP(=O)(O)O)[C@@H](O)[C@H]1O` [ADP, adenosine diphosphate]: the FITC Signal Detected in assay [1] was determined as 17349; in assay [2] (10 min. incubation), 1235; in assay [2] (15 min. incubation) it was 1526; in assay [3] (2 uM ADP, sample volume 5 μL), 524; in assay [3] (2 uM ADP, sample volume 10 μL), 579; in assay [3] (2 uM ADP, sample volume 20 μL), 896. Also, the “FITC Signal Detected” value in assay [3] (10 uM ADP, sample volume 5 μL) was determined as 525; in assay [3] (10 uM ADP, sample volume 10 μL) it was 616; in assay [3] (10 uM ADP, sample volume 20 μL), 1031; in assay [4] (2 μM ADP, sample volume 10 μL) it was 1544; in assay [4] (2 μM ADP, sample volume 20 μL) it was 2390; in assay [4] (10 μM ADP, sample volume 10 μL), 1749. Besides, the “FITC Signal Detected” value in assay [4] (10 μM ADP, sample volume 20 μL) is reported as 2747.
